Results published in BindingDB's records for doi:10.1021/jm00101a030 (University of Michigan, 1992).

Experiment: Binding affinity against Opioid receptor delta 1 in guinea pig brain homogenates, using [3H]DPDPE as radioligand.

SMILES | Ki [nM]
CC1(C)SSC[C@@H](NC(=O)[C@@H]2NCC[C@@H]2c2ccc(O)cc2)C(=O)N[C@@H](Cc2ccccc2)C(=O)N[C@@H]1C(=O)O | 84
CC1(C)SSC[C@@H](NC(=O)[C@H]2NCC[C@@H]2c2ccc(O)cc2)C(=O)N[C@@H](Cc2ccccc2)C(=O)N[C@@H]1C(=O)O | 0.66
